Our source for the IC50 and melting point values is patent US20210221784A1, “COMPOUNDS AND COMPOSITIONS FOR THE TREATMENT OF PAIN” (Université de Strasbourg, priority 2018, published 2021).

Data set [1] deals with T1, human NPFFR1 (hNPFFR1) receptor (Homo sapiens, UniProt Q9GZQ6).
T1 construct: expressed in transfected cells; host or cells: HEK-293 T cells, transient co-transfection
The experiment in a line: Human NPFFR1 evaluation using BRET biosensors in HEK-293 T cells. The class given is cell-based. Particulars: hNPFFR1 in HEK-293 T cells, stimulated by EC80 RFRP-3, read-out: IC50 of antagonist activity. The method, then: Compounds of the present invention were tested successively for their agonist and antagonist activities on human NPFFR1 (hNPFFR1) receptor transiently over-expressed in HEK-293 T cells. Compounds exert agonist activity if, by themselves in absence of neuropeptide RFRP-3 (also named NPVF) they activate hNPFFR1; and they exert antagonist activity if they decrease the action of RFRP-3 on the receptor. The assay used to measure compound activity is based on BRET (Bioluminescence Resonance Energy Transfer) biosensors and is designed to monitor the plasma membrane translocation of protein that interacts with specific Ga subunit. The specific effector (luciferase tagged: BRET donor) recruited at the membrane will be in close proximity to a plasma membrane anchor (GFP tagged: BRET acceptor) to induce a BRET signal (Ramdan et al, 2006, Chapter 5, Current Protocols in Neuroscience).
HEK-293 T cells are maintained in Dulbecco's Modified Eagle's Medium supplemented with 10% Foetal Calf Serum, 1% Penicillin/Streptomycin at 37° C./5% CO2. Cells are co-transfected using polyethylenimine (25 kDa linear) with four DNA plasmids encoding; hNPFFR1, GαoB, a Gi family specific intracellular effector fused to luciferase (BRET donor), a plasma membrane effector fused to GFP (BRET acceptor). After transfection, cells are cultured for 48 h at 37° C./5% CO2.
Receptor activity is detected by changes in BRET signal.
On the day of the assay, cells are detached using trypsin 0.05%, resuspended in assay buffer (1.8 mM CaCl2, 1 mM MgCl2, 2.7 mM KCl, 137 mM NaCl, 0.4 mM NaH2PO4, 5.5 mM D-Glucose, 11.9 mM NaHCO3, 25 mM Hepes) and seeded in 384 well plate at a density of 20,000 cells per well. Then, plates are equilibrated 3.5 hours at 37° C. before adding compounds.
Compounds and luciferase substrate are added to the cells using an automated device (Freedom Evo®, Tecan) and BRET readings are collected on EnVision (PerkinElmer) with specific filters (410 nm BW 80 nm, 515 nm BW 30 nm).
Agonist and antagonist activities of compounds are consecutively evaluated on the same cell plate. Agonist activity is first measured after 10 minutes incubation with compound alone on the cells. Then, cells are stimulated by an EC80 RFRP-3 concentration and luminescence is recorded for additional 10 minutes. EC80 RFRP-3 concentration is the concentration giving 80% of the maximal RFRP-3 response. Agonist or antagonist activities are evaluated in comparison to basal signals evoked by assay buffer or EC80 RFRP-3 alone, respectively.
For IC50 determination, a dose-response test is performed using 20 concentrations (ranging over 6 logs) of each compound. Dose-response curves are fitted using the sigmoidal dose-response (variable slope) analysis in GraphPad Prism software (GraphPad Software) and IC50 of antagonist activity is calculated. Dose-response experiments are performed in duplicate, in two independent experiments.

Structures are written as SMILES. Where a name gives a salt, the structure may show the parent alone.

T1 sequence (Q9GZQ6 whole entry): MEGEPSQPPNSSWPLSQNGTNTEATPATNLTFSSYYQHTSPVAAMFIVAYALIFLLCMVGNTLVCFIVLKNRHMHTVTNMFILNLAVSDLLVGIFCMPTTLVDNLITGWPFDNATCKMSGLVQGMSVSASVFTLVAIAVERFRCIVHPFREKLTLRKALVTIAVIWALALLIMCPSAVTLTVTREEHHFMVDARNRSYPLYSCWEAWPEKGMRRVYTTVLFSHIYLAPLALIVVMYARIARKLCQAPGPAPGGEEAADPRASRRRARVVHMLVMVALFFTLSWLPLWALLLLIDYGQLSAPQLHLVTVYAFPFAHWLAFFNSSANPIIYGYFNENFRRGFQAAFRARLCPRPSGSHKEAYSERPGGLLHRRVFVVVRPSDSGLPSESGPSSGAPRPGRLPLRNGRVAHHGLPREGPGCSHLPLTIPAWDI

In general, IC50 refers to the concentration that inhibits the measured activity by half. Usually melting point stands for the temperature, or range, at which the solid turns liquid. For `CC(C)Oc1ccc(F)cc1-c1ccc(N)nc1N` [Compound 50, 3-(5-Fluoro-2-isopropoxy-phenyl)-pyridine-2,6-diamine], the melting point fell in the range of 93 to 97 °C. Further, the IC50 in data set [1] was 500 to 1000 nM.

For the molecule `Nc1ccc(-c2ccc(F)nc2)c(N)n1` [Compound 86, 3-(6-fluoro-3-pyridyl)pyridine-2,6-diamine], the melting point fell in the range of 170 to 178 °C. Also, in data set [1], the IC50 was greater than 1000 nM.

Turning to `COc1ccccc1-c1c(C)cc(N)nc1C` [Compound 27, 5-(2-Methoxy-phenyl)-4,6-dimethyl-pyridin-2-ylamine], the melting point was in the range of 178 to 181 °C. Further, the IC50 in data set [1] is greater than 1000 nM.

Molecule `Cc1ccc(OC(C)C)c(-c2ccc(N)nc2N)c1` [Compound 49, 3-(2-Isopropoxy-5-methyl-phenyl)-pyridine-2,6-diamine] displayed a melting point of 78 to 81 °C. Further, the IC50 in data set [1] lay in the range of 500 to 1000 nM.

In turn, `Cl.Nc1ccc(-c2ccc(Cl)c3ccccc23)c(N)n1` [Compound 73, 3-(4-chloro-1-naphthyl)pyridine-2,6-diamine] showed a melting point of 135 to 140 °C. Besides, the IC50 in data set [1] is less than 100 nM.

As for `Cl.Nc1ccc(-c2ccccc2OCC2CC2)c(N)n1` [Compound 65, 3-[2-(cyclopropylmethoxy)phenyl]pyridine-2,6-diamine], the melting point is 63 to 68 °C. Besides, the IC50 in data set [1] was less than 100 nM.

In turn, `Cc1cccc(-c2ccc(N)nc2N)c1Cl` [Compound 58, 3-(2-chloro-3-methyl-phenyl)-pyridine-2,6-diamine] registered a melting point of 109 to 114 °C. Further, the IC50 in data set [1] lay in the range of 100 to 500 nM.

As for `Cc1nc(F)ccc1-c1ccc(N)nc1N` [Compound 85, 3-(6-fluoro-2-methyl-3-pyridyl)pyridine-2,6-diamine], the melting point lay within 186 to 192 °C. For the same molecule, the IC50 in data set [1] was greater than 1000 nM.

`COc1ccc2ccccc2c1-c1ccc(N)nc1N` [Compound 69, 3-(2-methoxy-1-naphthyl)pyridine-2,6-diamine]: the melting point lay within 63 to 67 °C. Also, the IC50 in data set [1] lay within 100 to 500 nM.

For `CCc1nc(N)ccc1-c1cccc2ccccc12.Cl` [Compound 67, 6-ethyl-5-(1-naphthyl)pyridin-2-amine], the melting point fell in the range of 90 to 120 °C. For the same molecule, in data set [1], the IC50 fell in the range of 100 to 500 nM.

`Nc1ccc(-c2cccc3ccccc23)c(N)n1` [Compound 68, 3-(1-naphthyl)pyridine-2,6-diamine] returned a melting point of 152 to 158 °C. For the same molecule, in data set [1], the IC50 was less than 100 nM.

`Cl.Nc1ccc(-c2ccc(O)c3ccccc23)c(N)n1` [Compound 74, 4-(2,6-diamino-3-pyridyl)naphthalen-1-ol] displayed a melting point of 160 to 166 °C. The IC50 in data set [1] fell in the range of 500 to 1000 nM.

As to `CSc1ccccc1-c1ccc(N)nc1N.Cl` [Compound 59, 3-(2-Methylsulfanyl-phenyl)-pyridine-2,6-diamine], the melting point fell in the range of 73 to 78 °C. The IC50 in data set [1] was in the range of 100 to 500 nM.

Turning to `CCc1nc(N)ccc1-c1ccccc1OC1CC1.Cl` [Compound 31, 5-[2-(cyclopropoxy)phenyl]-6-ethyl-pyridin-2-amine], the melting point lay within 60 to 80 °C. Further, the IC50 in data set [1] was less than 100 nM.

In turn, `CCc1nc(N)ccc1-c1ccccc1C1CC1.Cl` [Compound 30, 5-(2-cyclopropylphenyl)-6-ethyl-pyridin-2-amine] came in with a melting point of 180 to 190 °C. In addition, the IC50 in data set [1] was in the range of 100 to 500 nM.

`COc1ccc(-c2ccc(N)nc2N)c(C)c1` [Compound 40, 3-(4-Methoxy-2-methyl-phenyl)-pyridine-2,6-diamine] displayed a melting point of 150 to 158 °C. In data set [1], the IC50 is greater than 1000 nM.

Take `CC(C)Oc1ccc(C(F)(F)F)cc1-c1ccc(N)nc1N` [Compound 52, 3-(2-Isopropoxy-5-trifluoromethyl-phenyl)-pyridine-2,6-diamine]: the melting point lay in the range of 100 to 103 °C. Also, the IC50 in data set [1] is greater than 1000 nM.

Regarding `CS(=O)(=O)c1ccccc1-c1ccc(N)nc1N.Cl` [Compound 63, 3-(2-methylsulfonylphenyl)pyridine-2,6-diamine], the melting point fell in the range of 55 to 65 °C. The IC50 in data set [1] was greater than 1000 nM.

As for `Cl.Nc1ccc(-c2ccccc2OCc2ccccc2)c(N)n1` [Compound 64, 3-(2-benzyloxyphenyl)pyridine-2,6-diamine], the melting point is 50 to 60 °C. In data set [1], the IC50 was less than 100 nM.

The molecule `CCc1nc(N)ccc1-c1ccccc1OC1CCCC1.Cl` [Compound 76, 5-[2-(cyclopentoxy)phenyl]-6-ethyl-pyridin-2-amine] yielded a melting point of 80 to 93 °C. For the same molecule, in data set [1], the 50% inhibitory concentration (IC50) was less than 100 nM.

`Nc1ccc(-c2ccc(Cl)cc2F)c(N)n1` [Compound 41, 3-(4-Chloro-2-fluoro-phenyl)-pyridine-2,6-diamine] gave a melting point of 134 to 139 °C. Besides, in data set [1], the IC50 was greater than 1000 nM.

The molecule `Cc1cc(C(F)(F)F)ccc1-c1ccc(N)nc1N` [Compound 57, 3-(2-Methyl-4-trifluoromethyl-phenyl)-pyridine-2,6-diamine] yielded a melting point of 60 to 65 °C. In addition, the IC50 in data set [1] is greater than 1000 nM.

Regarding `COc1ccccc1-c1ccc(N)nc1C` [Compound 26, 5-(2-Methoxy-phenyl)-6-methyl-pyridin-2-ylamine], the melting point is 132 to 140 °C. In data set [1], the IC50 is greater than 1000 nM.

`Cl.N#Cc1ccccc1-c1ccc(N)nc1N` [Compound 96, 2-(2,6-diamino-3-pyridyl)benzonitrile] showed a melting point greater than 250 °C. In data set [1], the IC50 fell in the range of 100 to 500 nM.

Molecule `CC(C)Oc1ccc2ccccc2c1-c1ccc(N)nc1N` [Compound 70, 3-(2-isopropoxy-1-naphthyl)pyridine-2,6-diamine] yielded a melting point of 40 to 43 °C. The IC50 in data set [1] lay in the range of 500 to 1000 nM.

Consider `Cl.Nc1ccc(-c2ccc(F)c3ccccc23)c(N)n1` [Compound 72, 3-(4-fluoro-1-naphthyl)pyridine-2,6-diamine], for which the melting point lay within 119 to 126 °C. Further, the IC50 in data set [1] was less than 100 nM.

Take `Cc1cccc(C)c1-c1ccc(N)nc1N` [Compound 51, 3-(2,6-Dimethyl-phenyl)-pyridine-2,6-diamine]: the melting point is 104 to 108 °C. In data set [1], the IC50 lay within 100 to 500 nM.

The molecule `CC(C)Oc1cc(F)ccc1-c1ccc(N)nc1N` [Compound 53, 3-(4-Fluoro-2-isopropoxy-phenyl)-pyridine-2,6-diamine] displayed a melting point of 59 to 63 °C. Also, in data set [1], the IC50 lay within 100 to 500 nM.

Consider `Cc1ccc(-c2ccc(N)nc2N)c2ccccc12.Cl` [Compound 71, 3-(4-methyl-1-naphthyl)pyridine-2,6-diamine], for which the melting point lay within 127 to 132 °C. For the same molecule, the IC50 in data set [1] is 100 to 500 nM.

The molecule `Nc1ccc(-c2ccc(F)cc2Cl)c(N)n1` [Compound 45, 3-(2-Chloro-4-fluoro-phenyl)-pyridine-2,6-diamine] had a melting point of 150 to 155 °C. Moreover, the IC50 in data set [1] lay in the range of 500 to 1000 nM.

Consider `Nc1ccc(-c2cccc(Cl)c2Cl)c(F)n1` [Compound 33, 5-(2,3-Dichloro-phenyl)-6-fluoro-pyridin-2-ylamine], for which the melting point lay in the range of 139 to 144 °C.

`Nc1ccc(-c2ccc(N3CCOCC3)nc2)c(N)n1` [Compound 78, 3-(6-morpholino-3-pyridyl)pyridine-2,6-diamine] showed a melting point of 201 to 205 °C.

The molecule `NCCOc1nc(N)ccc1-c1cccc(Cl)c1Cl` (as salt: hydrochloride) [Compound 38, 6-(2-Amino-ethoxy)-5-(2,3-dichloro-phenyl)-pyridin-2-ylamine] came in with a melting point of 183 to 190 °C.

`COc1ncccc1-c1ccc(N)nc1N` [Compound 89, 3-(2-methoxy-3-pyridyl)pyridine-2,6-diamine] showed a melting point of 174 to 176 °C. Moreover, the 50% inhibitory concentration (IC50) in data set [1] was greater than 1000 nM.

Molecule `Cc1ccc(Cl)cc1-c1ccc(N)nc1N` [Compound 56, 3-(5-Chloro-2-methyl-phenyl)-pyridine-2,6-diamine] yielded a melting point of 95 to 97 °C. The IC50 in data set [1] is 100 to 500 nM.
